Test results: PMC5259778, “Candidate pheromone receptors of codling moth Cydia pomonella respond to pheromones and kairomones” (Scientific Reports, 2017)

Legend:
CpomOR6a = assay: Single sensillum recordings, CpomOR6a expressed in Drosophila at1 OSNs; assay type: cell-based, Cydia pomonella; conditions: for Spike/s: 10 μg per stimulus
From the text: (§1) To perform heterologous expression in D. melanogaster OSNs, CpomORs were amplified using primers in Table 2 and purified PCR products were cloned into the PCR8/GW/TOPO plasmid (Invitrogen) following the recommended protocol. Cassettes with inserts were then transferred from their PCR8/GW/TOPO plasmids to the destination vector (pUASg-HA.attB, constructed by E. Furger and J. Bischof, kindly provided by the Basler group, Zürich), using the Gateway LR Clonase II kit (Invitrogen). The integrity and orientation of inserts was confirmed by sequencing (Sanger sequencer, 3730xl). Transformant UAS-CpomOR3 and UAS-CpomOR1 lines were generated by Best Gene (Chino Hills, CA, USA), using the PhiC31 integrase system, while the transformant UAS-CpomOR6a line was generated in our labs. Briefly, recombinant pUASg-HA.attB-CpomOR plasmids were injected into embryos of a D. melanogaster line containing an attP insertion site within the third chromosome (genotype y1 M{vas-int.Dm}ZH-2A w*; M{3xP3-RFP.attP}ZH-86Fb), leading to non-random integration. To drive expression of CpomORs in at1 OSNs in place of the endogenous receptor Or67d, transformant UAS-CpomOR lines were crossed to the knock-in Or67d^GAL4 line (kindly provided by Barry Dickson) to generate double homozygous lines w^+;UAS-CpomOR; Or67d^GAL4. Additionally, to drive expression of CpomOR3 in ab3A OSNs, the UAS-CpomOR3 line was crossed to the Δhalo;Or22a-Gal4 mutant line[20][57]. To verify insertion of UAS-CpomORs constructs into the genome, gDNA was extracted and used as template in PCR with primers for the full ORF of CpomORs (Table 2).
(§2) CpomOR1 and CpomOR6a expressed in at1 OSNs, and CpomOR3 expressed in ab3A OSNs, were tested through single sensillum recordings (SSR). Three to 8-day-old flies were immobilized in 100 μL pipette tips with only the top half of the head protruding. The left antenna of each insect was gently pushed with a glass capillary against a double-sided adhesive tape placed on a piece of glass. This piece of glass and the pipette tip were fixed with dental wax on a microscope slide. Electrolytically sharpened tungsten electrodes (Harvard Apparatus Ltd, Edenbridge, United Kingdom) were used to penetrate the insect´s body. The reference electrode was manually inserted in the right eye of the fly, while the recording electrode was manoeuvred with a DC-3K micromanipulator equipped with a PM-10 piezo translator (Märzhäuser Wetzler GmbH, Wetzler, Germany) and inserted at the base of the determined sensilla. Signals coming from the olfactory sensory neurons were amplified 10 times with a probe (INR-02, Syntech, Hilversum, the Netherlands), digitally converted through an IDAC-4-USB (Syntech) interface, and visualized and analysed with the software Autospike v. 3.4 (Syntech). A constant flow of 0.65 m/s of humidified air (charcoal-filtered) was delivered through a glass tube to the antenna. The panel of odorants was given to the insect by inserting pipettes containing a piece of filter paper with the correspondent stimulus in a lateral hole of the glass tube and puffing a flow of 2.5 mL of air during 0.5 s through the pipette. For CpomOR1 and CpomOR6a the panel of odorants was prepared by applying 10 μL of a solution of 1.0 μg/μL of the compounds in Supplementary Dataset S2 and Supplementary Dataset S3, for a total amount of 10 μg per stimulus. In the case of CpomOR3, a similar dilution process was used for the dose response experiments of ethyl-(E,Z)-2,4-decadienoate and methyl-(E,Z)-2,4-decadienoate, as well for dose response of experiments of codlemone acetate in CpomOR6a. Compounds were diluted from concentrations ranging from 0.01 ng/μL to 10 μg/μL in decadic steps, allowing reaching concentrations from 100 pg to 100 μg per stimulus when 10 μL of the dilution was applied in the piece of filter paper. […]

CpomOR1 = assay: Single sensillum recordings, CpomOR1 expressed in Drosophila at1 OSNs; assay type: cell-based, Cydia pomonella
From the text: as §1, §2

[1] = replicate 1, 10 μg per stimulus
[2] = replicate 2, 10 μg per stimulus
[3] = replicate 3, 10 μg per stimulus
[4] = replicate 4, 10 μg per stimulus
[5] = replicate 5, 10 μg per stimulus

`C/C=C/C=C/CCCCCCCOC(C)=O` [codlemone acetate, (E,E)-8,10-dodecadien-1-yl acetate] was tested, and the “response compared with the solvent” value (CpomOR6a; 10 μg doses, Mann-Whitney U Test, p < 0.05) was “strongest response significantly different from the solvent”, the threshold for detection (CpomOR6a; dose response, dose per stimulus) was 1.0 microgram and the Spike/s (CpomOR6a; replicate 1) was 46 Spike/s. For the same molecule, the Spike/s (CpomOR6a; replicate 2) was 50 Spike/s, the Spike/s (CpomOR6a; replicate 3) was 44 Spike/s and the Spike/s (CpomOR6a; replicate 4) was 54 Spike/s. It also gave a Spike/s (CpomOR6a; replicate 5) of 80 Spike/s, a Spike/s (CpomOR6a; replicate 6) of 46 Spike/s and a Spike/s (CpomOR6a; replicate 7) of 82 Spike/s. For the same molecule, the Spike/s (CpomOR6a; replicate 8) was 62 Spike/s, the Spike/s (CpomOR6a; replicate 9) was 58 Spike/s and the Spikes/s (CpomOR1; [1]) was 2 Spikes/s. It also gave a Spikes/s (CpomOR1; [2]) of 4 Spikes/s, a Spikes/s (CpomOR1; [3]) of 4 Spikes/s and a Spikes/s (CpomOR1; [4]) of 2 Spikes/s. It also gave a Spikes/s (CpomOR1; [5]) of 4 Spikes/s.

For `C/C=C/C=C/CCCCCCCO` [codlemone, (E,E)-8,10-dodecadien-1-ol], the Spike/s (CpomOR6a; replicate 1) was 0 Spike/s, the Spike/s (CpomOR6a; replicate 2) was 0 Spike/s and the Spike/s (CpomOR6a; replicate 3) was -4 Spike/s. It also gave a Spike/s (CpomOR6a; replicate 4) of 6 Spike/s, a Spike/s (CpomOR6a; replicate 5) of 0 Spike/s and a Spike/s (CpomOR6a; replicate 6) of 2 Spike/s. For the same molecule, the Spike/s (CpomOR6a; replicate 7) was 14 Spike/s, the Spike/s (CpomOR6a; replicate 8) was 0 Spike/s and the Spike/s (CpomOR6a; replicate 9) was 2 Spike/s. For the same molecule, the Spikes/s (CpomOR1; replicate 1, 100 ng) was -4 Spikes/s, the Spikes/s (CpomOR1; [1]) was 6 Spikes/s and the Spikes/s (CpomOR1; replicate 2, 100 ng) was 2 Spikes/s. It also gave a Spikes/s (CpomOR1; [2]) of 2 Spikes/s, a Spikes/s (CpomOR1; replicate 3, 100 ng) of 2 Spikes/s and a Spikes/s (CpomOR1; [3]) of 0 Spikes/s. It also gave a Spikes/s (CpomOR1; replicate 4, 100 ng) of -8 Spikes/s, a Spikes/s (CpomOR1; [4]) of -12 Spikes/s and a Spikes/s (CpomOR1; replicate 5, 100 ng) of -4 Spikes/s. It also gave a Spikes/s (CpomOR1; [5]) of 0 Spikes/s.
